Publication PMC10600239, “Selective MCL-1 inhibitor ABBV-467 is efficacious in tumor models but is associated with cardiac troponin increases in patients” (Communications Medicine, 2023)
Values joined by “and” are separate entries in the source; they are usually repeats but may differ in a detail not shown here. Equal values may be shown once. Read-outs that look alike come from different tables or passages of the source.

Experiment: Phase 1 first-in-human study (NCT04178902): pharmacokinetics
Assay type: in vivo
Source text: Other eligibility criteria included: Eastern Cooperative Oncology Group performance status ≤2, measurable disease as defined by International Myeloma Working Group (IMWG) consensus criteria, an echocardiogram with an ejection fraction ≥50%, and adequate hematologic, hepatic, and renal function. […] Safety evaluations included, but were not limited to, adverse event (AE) monitoring, physical examinations, vital sign measurements, electrocardiogram (ECG), cardiac enzyme monitoring, and clinical laboratory testing (hematology and chemistry) as a measure of safety and tolerability for the entire study duration. Parameters used to determine PK included maximum observed plasma concentration (Cmax), terminal elimination half-life (t1/2), area under the plasma concentration-time curve (AUC) from time 0 to time of last measurable concentration (AUCt), AUC from time 0 to infinity (AUC0-∞), and clearance using non-compartmental methods. […] Preliminary efficacy endpoints were overall response rate (ORR), clinical benefit rate (CBR), and duration of response (DOR) as evaluated per adapted IMWG[36] criteria for MM and per adapted International Working Group (IWG)[37] and European Leukemia Net (ELN)[38] criteria for AML. […]

[1] = Cycle 1 day 1, dose level 0.32 mg/kg (only half of this dose given), N=2, individual values
[2] = Cycle 1 day 15, 0.32 mg/kg, N=2, individual values
[3] = Cycle 1 day 15, 0.53 mg/kg, N=2, individual values

In the case of `Cc1c(Cl)c2c(Cl)c(C)c1-c1c(-c3ccc(F)cc3)sc3ncnc(c13)O[C@@H](C(=O)O)Cc1cc(ccc1OCc1ccnc(-c3ccc(OC[C@H]4COCCO4)cc3)n1)OC[C@@H](CN1CCN(C)CC1)O2` [ABBV-467], the CONC_NGML (Cycle 1 Day 1, DOSE_MGKG 0.08, cohort 1, PKTIME 0.333333) is reported as 157 ng/mL and 146 ng/mL, the CONC_NGML (Cycle 1 Day 1, DOSE_MGKG 0.08, cohort 1, PKTIME 0.5) is reported as 198 ng/mL and 162 ng/mL and the CONC_NGML (Cycle 1 Day 1, DOSE_MGKG 0.16, cohort 2, PKTIME 0.5) is reported as 344 ng/mL. The CONC_NGML (Cycle 1 Day 1, DOSE_MGKG 0.16, cohort 2, PKTIME 1) was 21.9 ng/mL, the CONC_NGML (Cycle 1 Day 1, DOSE_MGKG 0.16, cohort 2, PKTIME 1.5) was 17 ng/mL and the CONC_NGML (Cycle 1 Day 1, DOSE_MGKG 0.16, cohort 2, PKTIME 2.5) was 6.62 ng/mL. For the same compound, the CONC_NGML (Cycle 1 Day 1, DOSE_MGKG 0.265, cohort 3, PKTIME 0.333333) was 655 ng/mL and 470 ng/mL, the CONC_NGML (Cycle 1 Day 1, DOSE_MGKG 0.265, cohort 3, PKTIME 0.5) was 708 ng/mL and 613 ng/mL and the CONC_NGML (Cycle 1 Day 1, DOSE_MGKG 0.265, cohort 3, PKTIME 1.5) was 26.5 ng/mL and 26.6 ng/mL. For the same compound, the CONC_NGML (Cycle 1 Day 1, DOSE_MGKG 0.265, cohort 3, PKTIME 2.5) was 6.81 ng/mL and 11.1 ng/mL, the CONC_NGML (Cycle 1 Day 15, DOSE_MGKG 0.16, cohort 1, PKTIME 0.333333) was 297 ng/mL and 479 ng/mL and the CONC_NGML (Cycle 1 Day 15, DOSE_MGKG 0.16, cohort 1, PKTIME 1) was 46.8 ng/mL and 44.6 ng/mL. The CONC_NGML (Cycle 1 Day 15, DOSE_MGKG 0.16, cohort 1, PKTIME 1.5) was 14.6 ng/mL and 10.1 ng/mL, the CONC_NGML (Cycle 1 Day 15, DOSE_MGKG 0.32, cohort 2, PKTIME 0.333333) was 529 ng/mL and the CONC_NGML (Cycle 1 Day 15, DOSE_MGKG 0.53, cohort 3, PKTIME 0.166667) was 940 ng/mL. The CONC_NGML (Cycle 1 Day 15, DOSE_MGKG 0.53, cohort 3, PKTIME 0.333333) was 1430 ng/mL, the CONC_NGML (Cycle 1 Day 15, DOSE_MGKG 0.53, cohort 3, PKTIME 0.5) was 1510 ng/mL and the CONC_NGML (Cycle 1 Day 15, DOSE_MGKG 0.53, cohort 3, PKTIME 1.5) was 60.6 ng/mL. For the same compound, the CONC_NGML (Cycle 1 Day 15, DOSE_MGKG 0.53, cohort 3, PKTIME 2.5) was 26.3 ng/mL, the CONC_NGML (Cycle 1 Day 15, DOSE_MGKG 0.53, cohort 3, PKTIME 4.5) was 8.14 ng/mL and the AUCinf [1] was 309 ng·h/mL. For the same compound, the AUCt [1] was 306 ng·h/mL, the CL [1] was 8.62 mL/min/kg and the Cmax [1] was 344 ng/mL. For the same compound, the t1/2 [1] was 34.4 min, the AUCinf [2] was 940 ng·h/mL and 350 ng·h/mL and the AUCt [2] was 346 ng·h/mL and 933 ng·h/mL. For the same compound, the CL [2] was 5.67 mL/min/kg and 15.2 mL/min/kg, the Cmax [2] was 1720 ng/mL and 646 ng/mL and the Tmax [2] was 45.0 min. For the same compound, the t1/2 [2] was 23.0 min and 54.3 min, the AUCinf [3] was 1290 ng·h/mL and the AUCt [3] was 1280 ng·h/mL. The CL [3] was 6.83 mL/min/kg, the Cmax [3] was 1860 ng/mL and the t1/2 [3] was 64.1 min. The “pharmacokinetics” value (human patients at the doses studied) was “linear pharmacokinetics”, the concentration at 0 h (human, in vivo, 0.08 mg/kg, Cycle 1 Day 1, DOSE_MGKG 0.08, cohort 1, PKTIME 0, read-out: CONC_NGML) was 0 ng/mL and the concentration at 20 min (human, in vivo, 0.08 mg/kg, Cycle 1 Day 1, DOSE_MGKG 0.08, cohort 1, PKTIME 0.333333, read-out: CONC_NGML) was 132 ng/mL. The concentration at 0.5 h (human, in vivo, 0.08 mg/kg, Cycle 1 Day 1, DOSE_MGKG 0.08, cohort 1, PKTIME 0.5, read-out: CONC_NGML) was 252 ng/mL, the concentration at 4.5 h (human, in vivo, 0.08 mg/kg, Cycle 1 Day 1, DOSE_MGKG 0.08, cohort 1, PKTIME 4.5, read-out: CONC_NGML) was 0 ng/mL and the concentration at […] (human, in vivo, 0.08 mg/kg, Cycle 1 Day 1, DOSE_MGKG 0.08, cohort 1, PKTIME 8.5, read-out: CONC_NGML) was 0 ng/mL. It also gave a concentration at […] (human, in vivo, 0.08 mg/kg, Cycle 1 Day 1, DOSE_MGKG 0.08, cohort 1, PKTIME 24.5, read-out: CONC_NGML) of 0 ng/mL, a concentration at 0 h (human, in vivo, 0.265 mg/kg, Cycle 1 Day 1, DOSE_MGKG 0.265, cohort 3, PKTIME 0, read-out: CONC_NGML) of 0 ng/mL and a concentration at 20 min (human, in vivo, 0.265 mg/kg, Cycle 1 Day 1, DOSE_MGKG 0.265, cohort 3, PKTIME 0.333333, read-out: CONC_NGML) of 904 ng/mL. It also gave a concentration at 0.5 h (human, in vivo, 0.265 mg/kg, Cycle 1 Day 1, DOSE_MGKG 0.265, cohort 3, PKTIME 0.5, read-out: CONC_NGML) of 564 ng/mL and a concentration at 1.5 h (human, in vivo, 0.265 mg/kg, Cycle 1 Day 1, DOSE_MGKG 0.265, cohort 3, PKTIME 1.5, read-out: CONC_NGML) of 14.9 ng/mL.
